Test results: patent US20200017495A1, “NOVEL HETEROCYCLIC COMPOUNDS AND THEIR USE IN PREVENTING OR TREATING BACTERIAL INFECTIONS” (priority 2017, published 2020)
Where two headings read alike, the source gives them in different places.

Key:
Assay in all cases: MIC of compounds alone and combined with antibacterials, broth microdilution (CLSI)
Format in all cases: cell-based
[1] = tested on: Citrobacter koseri (CKR) isolates; details: Citrobacter koseri, alone, read-out: MIC
Summary of the method: (§1)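 Broth microdilution in cation-adjusted Mueller-Hinton broth, inoculum 5.10^5 CFU/mL, 16-20 h at 35° C in ambient air, on genotyped isolates. Compound MIC, alone or with an antibacterial, taken visually as lowest concentration preventing growth; antibacterial MIC determined at each compound concentration.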

[2] = tested on: Escherichia coli (ECO) isolates; details: Escherichia coli, read-out: MIC
Summary of the method: as §1

[3] = tested on: Providencia stuartii (PST) isolates; details: Providencia stuartii, read-out: MIC
Summary of the method: (§2)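 Compounds tested alone or with an antibacterial against genotyped isolates; DMSO dilutions spotted, then log-phase inoculum at 5.10^5 CFU/mL in cation-adjusted Mueller-Hinton broth added. Incubation 16-20 h at 35° C in ambient air. MIC read visually as lowest concentration preventing growth; for combinations, antibacterial MIC determined at each compound concentration.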

[4] = tested on: Salmonella typhimurium (STY) isolates; details: Salmonella enterica, TYPHIMURIUM; STY S3371; alone; read-out: MIC
Summary of the method: as §2

Measured: MIC

O=C1N2CC(n3cccn3)=CC(C2)N1OC(F)(F)C(=O)[O-].[Li+] (centres unmarked) [AF3]
8 µg/mL: [2]; ECO 190314, alone | [2]; ECO 260304, alone | [2]; ECO 260508, alone | [2]; ECO (strain number on grid row 356, not shown), alone | [2]; ECO RGN238, alone | [2]; ECO UFR15, alone | [2]; ECO UFR16, alone | [2]; ECO UFR18, alone | [2]; ECO UFR19, alone | [2]; ECO UFR32, alone | [2]; ECO UFR39, alone | [2]; ECO UFR41, alone | [2]; ECO UFR52, alone | [2]; ECO UFR62, alone | [2]; ECO UFR74, alone | [2]; ECO UFR176, alone | [2]; ECO UFR184, alone | [2]; ECO UFR209, alone | [2]; ECO UFR211, alone | [2]; ECO UFR212, alone | [2]; ECO URF20, alone | [2]; strain ECO UFR177, compound alone | [2]; strain ECO UFR180, compound alone | [2]; strain ECO UFR186, compound alone | [2]; strain ECO UFR189, compound alone | [2]; strain ECO UFR190, compound alone | [2]; strain ECO UFR191, compound alone | [2]; strain ECO UFR204, compound alone | [2]; strain ECO UFR205, compound alone | [2]; strain ECO UFR252GO, compound alone | [3]; PST UFR120, alone | [3]; PST UFR121, alone | [3]; PST UFR124, alone | [4]
> 32 µg/mL: [1]; CKO UFR150 | [2]; ECO UFR17, alone | [3]; PST UFR95, alone
16 µg/mL: [1]; CKO UFR149 | [2]; ECO 260096, alone | [2]; ECO UFR61O, alone | [2]; ECO UFR86, alone | [2]; ECO UFR175, alone | [2]; ECO UFR208, alone | [2]; strain ECO UFR178, compound alone | [2]; strain ECO UFR179, compound alone | [2]; strain ECO UFR181, compound alone | [2]; strain ECO UFR182, compound alone | [2]; strain ECO UFR206, compound alone | [3]; PST UFR94, alone | [3]; PST UFR235, alone | [3]; strain PST UFR98, compound alone
4 µg/mL: [2]; ECO 4133, alone | [2]; ECO 5302, alone | [2]; ECO 131119, alone | [2]; ECO 180070, alone | [2]; ECO 190317, alone | [2]; ECO 190457, alone | [2]; ECO 190549, alone | [2]; ECO 200159, alone | [2]; ECO 200259, alone | [2]; ECO 200344, alone | [2]; ECO UFR45, alone | [2]; ECO UFR174, alone | [2]; ECO UFR210, alone | [2]; strain ECO UFR255, compound alone | [3]; PST UFR122, alone | [3]; PST UFR123, alone | [3]; PST UFR125, alone
32 µg/mL: [1]; CKO ROU | [2]; strain ECO UFR183, compound alone | [2]; strain ECO UFR187, compound alone
